According to article PMC6413952, “Discovery of ABBV-4083, a novel analog of Tylosin A that has potent anti-Wolbachia and anti-filarial activity” (PLoS Neglected Tropical Diseases, 2019):
Like-named read-outs stand apart in the source and are kept apart here.

Experiments:
[1] = molecular target: hERG channel (Homo sapiens, UniProt Q12809); assay: Functional hERG channel activity; type: biochemical; conditions: maximum concentration of 30 μM
Excerpt: (§1) As a preclinical candidate, ABBV-4083 has been evaluated in a variety of in vitro assays assessing preclinical safety. […] In preparation for first-in-human studies, the safety of ABBV-4083 has been extensively evaluated in 28-day GLP general and reproductive toxicity studies. In addition, the synthesis has been adapted to produce GMP quality supplies.

[2] = system: receptors; assay: Battery of 35 assays assessing general selectivity; type: binding; conditions: maximum concentration of 10 μM
Excerpt: as §1

[3] = Cardiovascular effects in dogs; type: in vivo; conditions: administered to dogs
Excerpt: as §1

[4] = In vitro genotoxicity screening assays; type: cell-based
Excerpt: as §1

[5] = system: Litomosoides, Brugia and Onchocerca; set-up: method as in PMID 30867321; conditions: cited from earlier work; for anti-Wolbachia efficacy compared with doxycycline: shorter durations of treatment
[6] = system: 77 mammalian receptors, ion channels, enzymes and transporters; set-up: method as in PMID 30867321; conditions: cited from earlier work
[7] = system: gram(+) and gram(-) microorganisms; set-up: method as in PMID 30867321; conditions: majority of panel; cited from earlier work
[8] = In vitro phospholipidosis assay; type: cell-based
Excerpt: as §1

[9] = system: Litomosoides sigmodontis / Wolbachia; assay: Litomosoides sigmodontis microfilariae-positive jird model; type: in vivo, jirds (Meriones unguiculatus)
Method: As described previously, female BALB/c mice or female jirds were infected at 6–8 weeks of age with L. sigmodontis larvae through the bites of Ornithonyssus bacoti mites.
Starting at 14 weeks post infection, microfilariae-positive jirds (n = 7 per group) were dosed PO with ABBV-4083 (150 mg/kg QD) dissolved in 0.5% HPMC/0.02% Tween-80 or vehicle using a volume of 5ml/kg. Microfilariae numbers were assessed through visual inspection of blood samples collected from the saphenous vein at weekly intervals post-dosing. For this, 10 μl of peripheral blood were diluted in 300 μl of Hinkelmann solution (0.5% Eosin Y, 0.5% Phenol, 0.185% Formaldehyde in aqua dest). After 5 minutes of centrifugation at 400g, the supernatant was discarded and the pellet transferred for microscopic quantification of the microfilariae. At 16 weeks post-treatment, jirds were euthanized by an overdose of isoflurane; worms were recovered from the pleural cavity and counted. Remaining intact female adult worms were used to assess embryogenesis and the Wolbachia load. For the latter, genomic DNA (gDNA) was extracted from individual female adult worms and quantification of the Wolbachia ftsZ (wLs-ftsZ) and L. sigmodontis β-actin (Ls-act) gene copy numbers was performed by quantitative real-time PCR (qPCR).
For embryograms, remaining intact female adult worms were individually homogenized in 20% Hinkelmann/80% PBS solution, diluted 1:10 in PBS and quantified by microscopy. Embryonal stages were differentiated as egg, morulae, pretzel and stretched microfilariae.

[10] = In vitro high-content steatosis screen; type: cell-based
Excerpt: as §1

[11] = Rat oral pharmacokinetic study (plasma AUC, C8hr); type: in vivo, Sprague-Dawley rats; conditions: for AUC*/EC50: potency-weighted AUC
Method: PO doses were administrated by oral gavage, IP doses by intraperitoneal injection to BALB/c mice or Sprague-Dawley rats (Charles River Laboratories, USA). Serial blood samples collected into EDTA anticoagulant for plasma concentration analysis were obtained from each animal after dosing. EDTA preserved plasma samples were extracted by protein precipitation with acetonitrile fortified with internal standards. The supernatant was injected into an HPLC-MS/MS system for separation and quantitation. Detection was accomplished using a triple quadrupole mass spectrometer operated either in electrospray or atmospheric chemical ionization (APCI) mode. The area under the plasma concentration-time curve (AUC) was calculated using the linear trapezoidal rule.

[12] = system: Wolbachia pipientis in Aedes albopictus C6/36 (wAlbB) insect cells; assay: A·WOL Wolbachia-infected Aedes albopictus (C6/36 wAlbB) 7-day cell-based assay, high content imaging
Excerpt: Compounds were screened for anti-Wolbachia activity in vitro in the A·WOL-validated Wolbachia-infected Aedes albopictus (C6/36 wAlbB) 7-day cell-based assay which utilizes a 384-well format assay with high content imaging (HCI) (Operetta) as described previously.
We began our work by selecting a diverse and representative sample of the AbbVie antibiotics collection (129 compounds) for single-point testing against Wolbachia pipientis in an insect cell line. […] While TylA has a long history of use in multiple animal species, it has never been studied in humans; and its activity against Wolbachia has not previously been reported.

Chain of hERG channel (Q12809 whole entry): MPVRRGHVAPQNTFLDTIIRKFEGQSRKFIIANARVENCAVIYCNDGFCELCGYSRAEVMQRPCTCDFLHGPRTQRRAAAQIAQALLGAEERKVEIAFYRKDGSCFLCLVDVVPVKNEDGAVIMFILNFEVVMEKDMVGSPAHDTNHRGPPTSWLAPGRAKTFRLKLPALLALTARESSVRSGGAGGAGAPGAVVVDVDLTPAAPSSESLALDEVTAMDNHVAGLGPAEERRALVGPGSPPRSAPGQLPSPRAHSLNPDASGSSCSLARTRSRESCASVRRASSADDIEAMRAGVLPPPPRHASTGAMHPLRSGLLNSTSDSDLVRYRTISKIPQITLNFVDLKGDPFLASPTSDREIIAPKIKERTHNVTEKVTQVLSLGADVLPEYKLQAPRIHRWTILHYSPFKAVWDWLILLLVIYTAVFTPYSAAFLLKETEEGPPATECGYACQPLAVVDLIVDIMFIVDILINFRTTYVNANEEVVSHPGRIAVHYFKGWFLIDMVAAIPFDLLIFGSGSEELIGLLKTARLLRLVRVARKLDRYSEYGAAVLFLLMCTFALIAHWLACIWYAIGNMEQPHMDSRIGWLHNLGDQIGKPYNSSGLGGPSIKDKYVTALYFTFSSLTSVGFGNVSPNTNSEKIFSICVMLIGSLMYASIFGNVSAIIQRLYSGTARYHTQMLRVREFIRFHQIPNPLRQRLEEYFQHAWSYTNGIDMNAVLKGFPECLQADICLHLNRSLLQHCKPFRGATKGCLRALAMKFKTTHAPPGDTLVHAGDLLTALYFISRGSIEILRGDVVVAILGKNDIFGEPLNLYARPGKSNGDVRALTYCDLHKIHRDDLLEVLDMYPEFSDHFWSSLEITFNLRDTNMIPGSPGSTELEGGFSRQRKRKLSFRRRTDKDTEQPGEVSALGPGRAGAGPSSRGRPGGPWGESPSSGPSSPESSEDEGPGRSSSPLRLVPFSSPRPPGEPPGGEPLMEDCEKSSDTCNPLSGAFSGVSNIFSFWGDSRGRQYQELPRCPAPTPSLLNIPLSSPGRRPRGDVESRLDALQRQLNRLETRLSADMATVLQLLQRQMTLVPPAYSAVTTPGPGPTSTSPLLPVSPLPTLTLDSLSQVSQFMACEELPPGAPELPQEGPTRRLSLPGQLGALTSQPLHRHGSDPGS

CC[C@H]1OC(=O)C[C@@H](O)[C@H](C)[C@@H](O[C@@H]2O[C@H](C)[C@@H](O[C@H]3C[C@@](C)(O)[C@@H](OCc4ccc(F)cc4)[C@H](C)O3)[C@H](N(C)C)[C@H]2O)[C@@H](CC=O)C[C@@H](C)C(=O)/C=C/C(C)=C/[C@@H]1CO[C@@H]1O[C@H](C)[C@@H](O)[C@@H](OC)[C@H]1OC [Compound 5d]
inhibition of functional hERG channel activity [1]: did not inhibit | interactions with receptors in 35 selectivity assays [2]: no significant interactions with any receptors | cardiovascular effects [3]: did not produce significant cardiovascular effects | genotoxicity [4]: neither mutagenic nor clastogenic | direct microfilaricidal activity [5]: not directly microfilaricidal | anti-Wolbachia efficacy compared with doxycycline [5]: superior to doxycycline | anti-Wolbachia efficacy compared with doxycycline ([5]; listed as ABBV-4083): equals or exceeds the efficacy of doxycycline | interactions across 77 assays [6]: significant interaction was only observed in two assays | change in susceptibility compared with TylA [7]: little to no change in susceptibility | phospholipidosis [8]: No potential to induce phospholipidosis | Wolbachia depletion ([9]; 150mg/kg 14days QD, Fig 3A): -99,91% | embryogenesis (embryograms of female worms) ([9]; 150 mg/kg PO QD 14 days, 16 weeks post treatment start): near-complete loss of all embryonic forms including eggs | circulating microfilariae ([9]; 150 mg/kg PO QD 14 days, from 12 weeks pti until 16 weeks pti): completely cleared | reduction of Wolbachia levels in recovered female adult worms ([9]; 150 mg/kg PO once daily for 14 days, 16 weeks post-treatment-initiation): > 99.9% | steatosis [10]: did not induce steatosis | C*8hr ([11]; PO rats, C(8hr)/dose): 0.75 ng/mL per mg/kg | AUC* parent ([11]; PO, Sprague-Dawley rats, AUC* = AUC/dose): 16 ng-hr/ml per mg/kg | AUC* TylA (metabolite) ([11]; PO, Sprague-Dawley rats, primary metabolite TylA, AUC/dose): <0.6 ng-hr/ml per mg/kg | potency-weighted 8-hr drug level (C8hr/dose/EC50) relative to TylA ([11]; oral dosing): 2,000 fold | potency-weighted AUC (AUC*/EC50) relative to TylA ([11]; oral dosing): 2,500 fold | improvement in plasma drug levels (AUC) over TylA ([11]; oral dosing, rats): 1.7 fold | metabolic stability of substituent / species observed in plasma ([11]; oral pharmacokinetic study): only parent drug is observed in the plasma | C*8hr/ EC50 ([11]; potency-weighted 8-hr drug level, PO rats): 39.5 ng/ml/nM per mg/kg | AUC*/EC50 ([11]; PO rats): 842 ng-hr/ml/nM per mg/kg | AUC*/EC50 ([11]; rat): 842,000 ng-hr/ml/uM per mg/kg | EC50 ([12]; C6/36, Wolbachia-infected insect cells, geometric mean (N), each N a duplicate measurement): 0.019 nM | potency improvement (EC50) over TylA ([12]; EC50 lower than parent TylA): 1,500 fold
